Columns and labels:
[1] = Solubility stated in text; format: physicochemical; conditions: vs 1-10 μM
dhBMECs monolayers = assay: Melittin-induced disruption of dhBMEC monolayers (transwell assay); format: cell-based, human
Description: Induced pluripotent stem cell (iPSC)-derived brain microvascular endothelial cells (dhBMECs) mimic the barrier function of the human BBB. DhBMECs were differentiated as previously reported. The BC1 iPSC line derived from a healthy individual was used for all experiments. After eleven days of differentiation, cells were detached using Accutase (A1110501, Thermo Fisher Scientific), and seeded onto transwells, glass slides, or type I collagen microchannels coated overnight with 50 μg mL^−1 human placental collagen IV (Catalog Number (Cat. No.) C5533, Sigma-Aldrich) and 25 μg mL^−1 fibronectin from human plasma (Cat. No. F1141, Sigma-Aldrich). Cells have previously been characterized for expression of tight junction proteins, efflux pumps, and nutrient transporters as well as measurements of barrier function including transendothelial electrical resistance (TEER) or solute permeability. Here, cells with TEER of at least 1500 Ω cm2 were used for all experiments. After detachment, cells were cultured in BBB induction medium: human endothelial cell serum-free medium (HESFM) (Cat. No. 11111044, Thermo Fisher Scientific) supplemented with 1% human platelet poor derived serum (Cat. No. P2918, Sigma-Aldrich), 1% penicillin-streptomycin (Cat. No. 15140122, Thermo Fisher Scientific), 2 ng mL^−1 bFGF (Cat. No. 233FB025CF, Fisher Scientific), and 10 μM all-trans retinoic acid (Cat. No R2625, Sigma-Aldrich). After 24 hours, cells were further cultured in BBB maintenance medium: HESFM supplemented with 1% human platelet poor derived serum and 1% penicillin-streptomycin. Human cortical neuron HCN-2 cells (CRL-10742) were obtained from ATCC (Manassas, VA, USA). HCN-2 cells were cultured in DMEM (Cat. No. 31600091, Thermo Fisher Scientific), adjusted to contain 1.5 g L^−1 sodium bicarbonate, 4.5 g L^−1 D-glucose, and supplemented with 10% heat-inactivated FBS (Cat. No. F4135, Sigma-Aldrich), following ATCC recommendations.
Corning transwell supports (Cat. No. 3470) were coated with 25 μg mL^−1 fibronectin and 50 μg mL^−1 collagen IV overnight at 37° C. DhBMECs were seeded on transwells in BBB induction medium at 10^6 cells cm^−2. […] On day 2, the TEER for monolayers was measured using EVOM-2 and STX-100 electrode (World Precision Instruments, Sarasota, FL), and monolayers with TEER>1500 Ω cm2 were used for the permeability experiment. […] After the permeability experiment, the TEER across monolayers was measured. Dextran fluorescence in the receiving chamber and in the initial apical solution (Co) was measured using the Synergy H4 plate reader (Biotek Instruments Inc., Winooski, VT) and was converted to dextran concentrations using the dextran-fluorescein standard curves. The apparent permeability (Papp) was calculated from Formula 1 below: […]

[2] = system: 2D dhBMEC monolayers (ZO1); assay: Immunocytochemistry of zona occludens-1 in 2D dhBMEC monolayers; format: cell-based, human
Description: Antibodies used in the study are described in Table 3. LabTek 8-chamber slides (Cat. No. 155411, Thermo Fisher Scientific) were coated with 25 μg mL^−1 fibronectin and 50 μg mL^−1 collagen IV overnight at 37° C. BC1 cell were seeded in BBB induction medium at 5×10^5 cells cm^−2. On day 1 after seeding, dhBMECs were washed twice with BBB maintenance medium and incubated in the medium overnight. On day 2, the cells were washed twice with BBB maintenance medium and treated with 1.5 μM, 5 μM, and 10 μM of melittin, diluted in the medium, for 2 minutes, 5 minutes, 10 minutes, or 90 minutes. The resulting melittin dosages, calculated as the product of melittin concentration and incubation time, were 3 μM·minutes, 25 μM·minutes, 100 μM minutes, and 450 μM·minutes. A negative control without melittin was included with every experiment. After the melittin incubation, the cells were washed twice with 1×PBS azide and fixed in 3.7% paraformaldehyde solution for 10 minutes or methanol for 15 minutes. The fixed cells were washed with 1×PBS azide and incubated in blocking solution (10% goat serum, 0.3% TritonX-100 in 1×PBS azide) at 4° C. for 1-2 days. The cells were incubated with primary antibodies for 2 hours at room temperature. […]

## CC[C@H](C)[C@H](NC(=O)CN)C(=O)NCC(=O)N[C@@H](C)C(=O)N[C@H](C(=O)N[C@@H](CC(C)C)C(=O)N[C@@H](CCCCN)C(=O)N[C@H](C(=O)N[C@@H](CC(C)C)C(=O)N[C@H](C(=O)N[C@H](C(=O)NCC(=O)N[C@@H](CC(C)C)C(=O)N1CCC[C@H]1C(=O)N[C@@H](C)C(=O)N[C@@H](CC(C)C)C(=O)N[C@H](C(=O)N[C@@H](CO)C(=O)N[C@@H](Cc1c[nH]c2ccccc12)C(=O)N[C@H](C(=O)N[C@@H](CCCCN)C(=O)N[C@@H](CCCNC(=N)N)C(=O)N[C@@H](CCCCN)C(=O)N[C@@H](CCCNC(=N)N)C(=O)N[C@@H](CCC(N)=O)C(=O)N[C@@H](CCC(N)=O)C(N)=O)[C@@H](C)CC)[C@@H](C)CC)[C@@H](C)O)[C@@H](C)O)C(C)C)C(C)C [melittin]
[1]
  solubility relative to the concentrations for membrane activity: more than 30 fold
dhBMECs monolayers
  concentrations for membrane activity: 1 to 10 µM
dhBMECs monolayers; 5 μM melittin for 90 minutes, transwell
  500 kDa dextran permeability across dhBMECs: increased
dhBMECs monolayers; confluent dhBMEC monolayers
  concentration above which disruption is induced in confluent monolayers: above 1 μM
dhBMECs monolayers; dhBMECs on glass slides, 5 μM melittin for 90 minutes
  cell morphology (phase contrast): cell swelling and detachment
[2]; 450 μM·minute dose
  monolayer integrity: significant cell detachment was observed
[2]; doses of 3-100 μM·minute
  ZO1 protein expression compared to controls: did not result in large changes
